“Also recorded” adds a separate entry of the source.

Data on three molecules can be found in patent US20250195672A1, “DENDRIMER COMPOSITIONS FOR TARGETED DELIVERY OF THERAPEUTICS TO NEURONS” (priority 2022, published 2025).

The assay relates to YFP-expressing cortical neurons. Briefly: GD2-Cy5 uptake in ex vivo cortical brain sections: neuronal activity and glucose transporter blockade. The assay is classed as cell-based, mouse. The following applies: 30 minutes pre-treatment in Mg2+ free ACSF: cytochalasin B 5 μM, glutor 10 μM, phlorizin 10 μM, GD2-Cy5 10 μg/ml. As to the method: FIG. 9A is scheme of the experiment in which 300 μm cortical brain sections were pre-treated for 30 minutes with control ACSF (Mg2+ free, increases neuronal firing) or ACSF containing Mg2+/NMDG (suppressed neuronal activity) or control ACSF with either cytochalasin B (5 μM) or glutor ([…]). After pre-treatment, brain sections were incubated with GD2-Cy5 (10 μg/ml) for 30 minutes followed by 10% formalin fixation and confocal imaging.
300 μm cortical brain sections were pre-treated for 30 minutes with Mg2+ free artificial cerebrospinal fluid (ACSF) (increases neuronal firing) or ACSF containing Mg2+/NMDG (suppressed neuronal activity) or Mg2+ free ACSF with cytochalasin B (5 μM) or glutor (10 μM) or phlorizin (10 μM). After pre-treatment, brain sections were incubated with GD2-Cy5 (10 μg/ml) for 30 minutes followed by formalin fixation and confocal imaging. Mean fluorescence intensities for GD-Cy5 were evaluated in YFP-expressing cortical neurons. Confocal images of fixed sections showing DAPI (nucleus), YFP (neurons) and GD2-Cy5 with different treatments were taken and analyzed.
CP rabbit kits or Thy1-YFP mice were deeply anesthetized with isoflurane and decapitated. Brains were removed and transferred to oxygenated (95% O2/5% CO2), ice-cold N-Methyl-D-glucamin (NMDG)-based buffer (Buffer1, in mM: 92 NMDG, 2.5 KCl, 10 MgSO4, 0.5 CaCl2, 1.2 NaH2PO4, 30 NaHCO3, 25 glucose, 20 HEPES, 5 sodium ascorbate, 3 sodium pyruvate, 2 thiourea; pH 7.4). Coronal brain slices ([…]) were then obtained using a vibratome (VT1200, Leica). Slices were first incubated in the NMDG-based solution at 34° C. for 10 minutes, then transferred and maintained in the same solution for an hour at room temperature before starting subsequent experiment. Dendrimer-Cy5 was added in 5 ml of Buffer2 (in mM: 125 NaCl, 2.5 KCl, 1 MgCl2, 2 CaCl2, 1.25 NaH2PO4, 26 NaHCO3, 20 glucose; pH 7.4) containing brain slices and incubated for 30 min while oxygenation at room temperature. […]
On to `C[C@@]1(C(=O)NCc2cccnc2)Cn2nc(-c3ccccc3)cc2C(=O)N1Cc1ccc(N2CCOCC2)cc1` [glutor], for which the “Effect of transporter blocker pre-treatment on GD2 uptake by neurons” value (“Effect” for short) is on record as “diminished GD2 uptake; also recorded: significantly decreased”.

As to `C=C1[C@@H](C)[C@H]2[C@H](Cc3ccccc3)NC(=O)[C@]23OC(=O)/C=C/[C@H](O)CCC[C@@H](C)C/C=C/[C@H]3[C@@H]1O` [cytochalasin B], the “Effect” value was “diminished GD2 uptake; also recorded: significantly decreased”.

With `O=C(CCc1ccc(O)cc1)c1c(O)cc(O)cc1O[C@@H]1O[C@H](CO)[C@@H](O)[C@H](O)[C@H]1O` [Phlorizin], the “Effect” value is reported as “diminished GD2 uptake”.
